Drawing on US20240043427A1 (Gilead Sciences, Inc., priority 2020, published 2024), this text covers IC50 and EC50 for eleven molecules.

Test [1] concerns the target T1, CD73 (Homo sapiens (Human), UniProt P21589). It counts as biochemical. Particulars: 1 mM NaH2PO4 in enzyme buffer, CD73 0.3 nM, AMP 15 uM.
Test [2] has as its target T1, CD73. In words: MDA-MB-231 Cell Based CD73 Activity Assay (DMEM). Particulars: MDA-MB-231-GFP cells, DMEM medium with 10% human plasma, 200 uM AMP.

T1 sequence (P21589 27-574): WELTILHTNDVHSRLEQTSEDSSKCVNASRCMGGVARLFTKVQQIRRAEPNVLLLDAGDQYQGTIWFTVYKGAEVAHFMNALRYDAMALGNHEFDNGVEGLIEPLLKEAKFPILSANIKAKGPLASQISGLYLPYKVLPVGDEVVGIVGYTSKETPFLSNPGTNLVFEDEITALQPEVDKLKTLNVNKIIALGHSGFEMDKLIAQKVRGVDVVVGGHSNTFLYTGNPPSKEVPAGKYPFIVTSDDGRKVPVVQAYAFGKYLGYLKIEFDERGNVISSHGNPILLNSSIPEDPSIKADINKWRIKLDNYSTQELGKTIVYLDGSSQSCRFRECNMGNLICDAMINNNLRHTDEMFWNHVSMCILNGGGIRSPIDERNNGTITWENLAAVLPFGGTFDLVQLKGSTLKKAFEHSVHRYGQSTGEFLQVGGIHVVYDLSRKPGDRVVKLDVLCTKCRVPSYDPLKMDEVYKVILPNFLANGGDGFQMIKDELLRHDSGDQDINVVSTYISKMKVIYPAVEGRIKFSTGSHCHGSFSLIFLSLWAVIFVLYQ

What is called IC50 is the concentration needed to halve the response being measured. For orientation: EC50 means the midpoint of the concentration-response curve. A high value points to a less potent agent. `O=C(NC1CN(c2cc(-c3c[nH]c(=O)[nH]c3=O)nn3ccnc23)CC1(F)F)c1ccc(C(F)(F)F)cn1` (stereo not shown) [Example 211, N-[1-[6-(2,4-dioxo-1H-pyrimidin-5-yl)imidazo[1,2-b]pyridazin-8-yl]-4,4-difluoro-pyrrolidin-3-yl]-5-(trifluoromethyl)pyridine-2-carboxamide] had an IC50 at CD73 [1] of 2.33 nM. In addition, the EC50 on CD73 [2] was 10.8 nM.
`O=c1[nH]cc(-c2cc([C@H]3C[C@@H]3c3ccc(C(F)F)cc3)n3nccc3n2)c(=O)[nH]1` [Example 215, 5-(7-((1S,2S)-2-(4-(difluoromethyl)phenyl)cyclopropyl)pyrazolo[1,5-a]pyrimidin-5-yl)pyrimidine-2,4(1H,3H)-dione]: the concentration for half-maximal inhibition (IC50) against CD73 [1] was 1.41 nM. This molecule registered an EC50 at CD73 [2] of 12.1 nM.
`CC1(C)CN(c2cc(-c3c[nH]c(=O)[nH]c3=O)nc3ccnn23)CC1(F)F` [Example 216, 5-(7-(3,3-difluoro-4,4-dimethylpyrrolidin-1-yl)pyrazolo[1,5-a]pyrimidin-5-yl)pyrimidine-2,4(1H,3H)-dione] had an IC50 against CD73 [1] of 8.01 nM. The EC50 on CD73 [2] was determined as 31.7 nM.
The molecule `CCc1cnn2c(N3CC(C)(C)C(F)(F)C3)cc(-c3c[nH]c(=O)[nH]c3=O)nc12` [Example 217, 5-(7-(3,3-difluoro-4,4-dimethylpyrrolidin-1-yl)-3-ethylpyrazolo[1,5-a]pyrimidin-5-yl)pyrimidine-2,4(1H,3H)-dione] registered an IC50 against CD73 [1] of 111 nM. Besides, at CD73 [2], a half-maximal effect (EC50) was put at 584 nM.
On CD73 [1], `O=c1[nH]cc(-c2cc(N3CC(F)(F)C4(CC4)C3)n3ncc(Cl)c3n2)c(=O)[nH]1` [Example 218, 5-(3-chloro-7-(7,7-difluoro-5-azaspiro[2.4]heptan-5-yl)pyrazolo[1,5-a]pyrimidin-5-yl)pyrimidine-2,4(1H,3H)-dione] yielded an IC50 of 3.29 nM. Also, on CD73 [2], the EC50 turned out to be 455 nM.
On to `CC1(C)CN(c2cc(-c3c[nH]c(=O)[nH]c3=O)nc3c(F)cnn23)CC1(F)F` [Example 219, 5-(7-(3,3-difluoro-4,4-dimethylpyrrolidin-1-yl)-3-fluoropyrazolo[1,5-a]pyrimidin-5-yl)pyrimidine-2,4(1H,3H)-dione], for which the IC50 at CD73 [1] turned out to be 8.26 nM. This molecule returned a concentration for a half-maximal effect (EC50) on CD73 [2] of 62.6 nM.
`CC1(C)CN(c2cc(-c3c[nH]c(=O)[nH]c3=O)nc3c(Cl)cnn23)CC1(F)F` [Example 220, 5-(3-chloro-7-(3,3-difluoro-4,4-dimethylpyrrolidin-1-yl)pyrazolo[1,5-a]pyrimidin-5-yl)pyrimidine-2,4(1H,3H)-dione] yielded an IC50 on CD73 [1] of 5.34 nM. Moreover, at CD73 [2], the EC50 came out at 114 nM.
Regarding `CC1CN(c2cc(-c3c[nH]c(=O)[nH]c3=O)nc3ccnn23)CC1(F)F` (stereo not shown) [Example 221, 5-(7-(3,3-difluoro-4-methylpyrrolidin-1-yl)pyrazolo[1,5-a]pyrimidin-5-yl)pyrimidine-2,4(1H,3H)-dione], inhibition against CD73 [1] was half-maximal at 13.1 nM (IC50). On CD73 [2], this molecule came in with an EC50 of 74.9 nM.
`CC1CN(c2cc(-c3c[nH]c(=O)[nH]c3=O)nc3c(F)cnn23)CC1(F)F` (stereo not shown) [Example 222, 5-(7-(3,3-difluoro-4-methylpyrrolidin-1-yl)-3-fluoropyrazolo[1,5-a]pyrimidin-5-yl)pyrimidine-2,4(1H,3H)-dione] had an IC50 on CD73 [1] of 17.4 nM. This molecule also came in with a 50% effective concentration (EC50) at CD73 [2] of 133 nM.
For the molecule `O=c1[nH]cc(-c2cc(N3C[C@H]4CCC[C@H]4C3)c3nccn3n2)c(=O)[nH]1` [Example 223, 5-(8-((3aR,6aS)-hexahydrocyclopenta[c]pyrrol-2(1H)-yl)imidazo[1,2-b]pyridazin-6-yl)pyrimidine-2,4(1H,3H)-dione], the concentration for half-maximal inhibition (IC50) against CD73 [1] was determined as 31.4 nM. The molecule further showed an EC50 on CD73 [2] of 66.4 nM.
As to `O=c1[nH]cc(-c2cc(N3CC4C(C3)C4(F)F)c3nccn3n2)c(=O)[nH]1` (stereo not shown) [Example 224, 5-(8-(6,6-difluoro-3-azabicyclo[3.1.0]hexan-3-yl)imidazo[1,2-b]pyridazin-6-yl)pyrimidine-2,4(1H,3H)-dione], inhibition against CD73 [1] was half-maximal at 11.9 nM (IC50). At CD73 [2], the EC50 was determined as 32.6 nM.
